# Measurements taken from patent publication US9410100B2, “Tritylated ethers” (ANGUS Chemical Company, priority 2012, dated 2016).
# Experiments:
# [1] = Solubility studies of functionalized tritylated phenol ethers in solvents; assay type: physicochemical
# Experimental: The solubility properties of functionalized tritylated phenol ethers were determined by mixing 0.1 gram samples of sample in 0.9 grams of solvent. The mixtures were warmed at 60° C. for a few minutes to make homogeneous solutions. The solutions were cooled back to room temperature, and then they were placed into a freezer at −10° C. The solutions were checked daily to see if crystallization had occurred.
melting point [°C],"Solubility at RT ([1]; 10 wt % in 1-Octanol, cooled to room temperature)","Solubility at 60 C. ([1]; 10 wt % in 1-Octanol, warmed at 60 C)","Solubility at RT ([1]; 10 wt % in AROMATIC 200, cooled to room temperature)","Solubility at 60 C. ([1]; 10 wt % in AROMATIC 200, warmed at 60 C)","Solubility at RT ([1]; 10 wt % in DMAc, cooled to room temperature)","Solubility at 60 C. ([1]; 10 wt % in DMAc, warmed at 60 C)","Solubility at RT ([1]; 10 wt % in DPGME, cooled to room temperature)","Solubility at 60 C. ([1]; 10 wt % in DPGME, warmed at 60 C)","Solubility at RT ([1]; 10 wt % in NMP, cooled to room temperature)","Solubility at 60 C. ([1]; 10 wt % in NMP, warmed at 60 C)","Solubility at RT ([1]; 10 wt % in Tetralin, cooled to room temperature)","Solubility at 60 C. ([1]; 10 wt % in Tetralin, warmed at 60 C)",Compound
158 to 161,,,,,,,,,,,,,"OCCCCCCOc1ccc(C(c2ccccc2)(c2ccccc2)c2ccccc2)cc1 [compound 1, 6-(4-Tritylphenoxy)hexan-1-ol]"
81 to 84,soluble,soluble,insoluble,insoluble,soluble,soluble,soluble,soluble,soluble,soluble,insoluble,soluble,"OCCCCCCOc1ccc(C(c2ccccc2)(c2ccccc2)c2ccccc2)cc1OCCCCCCO [Ex. 4, 6,6′-((4-trityl-1,2-phenylene)bis(oxy))bis(hexan-1-ol)]"
